Molecules are shown by their SMILES.

The series in a line: PH of drug and complex. The class given is physicochemical.

Regarding `CC(C)(C(=O)O)c1ccc(C(O)CCCN2CCC(C(O)(c3ccccc3)c3ccccc3)CC2)cc1.Cl` (racemic) [Fexofenadine Hydrochloride, (±)-4-[1-hydroxy-4-[4-(hydroxydiphenylmethyl)-1-piperidinyl]-butyl]-α,α-dimethylbenzene acetic acid hydrochloride], the PH is recorded as 2.25-2.75.

Source of the values: US20030170310A1, “Tasteless, directly compressible, fast-dissolving complexes and pharmaceutical formulations thereof” (priority 2002, published 2003).
